From patent publication US20050101595A1, “N-containing cycloalkyl-substituted amino-thiazole derivatives and pharmaceutical compositions for inhibiting cell proliferation and methods for their use” (PFIZER INC., priority 2003, published 2005)
Counter-ions that a name gives are not always drawn. Like-named read-outs stand apart in the source and are kept apart here.

Assays:
CDK2/Cyclin A = CDK2/Cyclin A (Homo sapiens, UniProt P24941); test: Inhibition of CDK2/Cyclin A Retinoblastoma Kinase Activity; type: biochemical; conditions: for CDK2 % Inhibition At 0.03 μM: Table 2; for Ki: apparent Ki, CDK2/proteolyzed cyclin A, Rb fragment substrate, 25 μM ATP
Summary of the method: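 Radiometric filter-binding readout of phosphate transfer to an Rb substrate fragment by purified CDK2/truncated cyclin A at 10 or 19 nM. Run at pH 7.4 with 25 μM ATP, 30 °C, 60–75 min, linear rates; background without enzyme subtracted, Ki from competitive-inhibition models.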

HCT-116 cell line = test: Inhibition of cell growth, tetrazolium salt (MTT) assay; type: cell-based; conditions: for HCT-116 % Inhibition at 0.25 μM: 0.25 μM compound; for IC50: Homo sapiens, HCT-116, 120 h, MTT, three to five days, read-out: HCT-116 IC50
Summary of the method: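 Cells in McCoy's 5A medium were left 4 h, then given graded compound concentrations in 0.5% (v/v) DMSO and incubated three to five days at 37° C (5% CO2). MTT was added to 0.2 mg/mL for 4 h more; DMSO-solubilized formazan was read at 540 nm against 0.5% DMSO-only controls.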

[1] = target: human CDK4 and genetically truncated (1-264) cyclin D3 (Homo sapiens, UniProt P11802); test: Inhibition of CDK4/Cyclin D Retinoblastoma Kinase Activity; type: biochemical; conditions: for Ki: apparent Ki, CDK4/truncated cyclin D3, Rb fragment substrate, 25 μM ATP
Summary of the method: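 Apparent Ki values come from competitive or competitive tight-binding inhibition fits of background-corrected 32P/33P incorporation into His-tagged Rb fragment (386-928), captured on nitrocellulose. Reaction: 5 nM insect-cell-expressed human CDK4 with cyclin D3 (1-264), 25 μM ATP, pH 7.4 HEPES, 2% DMSO, 30° C., 20 min, extended to 60 min for tight-binding inhibitors.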

Chain of human CDK4 and genetically truncated (1-264) cyclin D3 (P11802 whole entry, the tested form may be a part): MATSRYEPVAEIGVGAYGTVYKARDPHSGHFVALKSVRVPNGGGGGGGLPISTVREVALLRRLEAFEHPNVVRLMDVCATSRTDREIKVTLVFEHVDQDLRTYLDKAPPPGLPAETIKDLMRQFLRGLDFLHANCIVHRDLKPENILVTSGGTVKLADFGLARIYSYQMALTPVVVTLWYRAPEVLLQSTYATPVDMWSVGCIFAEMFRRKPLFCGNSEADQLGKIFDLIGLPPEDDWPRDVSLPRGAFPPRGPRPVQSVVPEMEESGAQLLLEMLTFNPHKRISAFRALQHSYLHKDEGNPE
Chain of human CDK4 and genetically truncated (1-264) cyclin D3 (P30281 1-264 partner): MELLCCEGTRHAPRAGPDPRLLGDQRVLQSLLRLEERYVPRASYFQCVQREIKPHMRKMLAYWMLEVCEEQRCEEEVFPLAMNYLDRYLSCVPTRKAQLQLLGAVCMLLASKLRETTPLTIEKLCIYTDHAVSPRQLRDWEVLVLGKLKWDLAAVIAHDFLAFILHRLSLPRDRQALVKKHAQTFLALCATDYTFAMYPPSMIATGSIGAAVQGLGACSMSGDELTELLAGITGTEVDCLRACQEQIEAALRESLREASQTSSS

In the case of CCOC(=O)C(CCSC)NC(=O)N1CCC(Nc2nc(N)c(C(=O)c3c(F)cccc3F)s2)CC1 (stereo not drawn) [Example O71], the “CDK2 % Inhibition At 0.03 μM” value (CDK2/Cyclin A; 0.03 μM compound) is reported as 30%, the “HCT-116 % Inhibition at 0.25 μM” value (HCT-116 cell line; HCT-116, Table 2) is reported as 51% and the “CDK4 % Inhibition at 0.03 μM” value ([1]; 0.03 μM compound, Table 2) is reported as 7%.

COc1ccc(Oc2ccc([N+](=O)[O-])cc2C(=O)N2CCC(Nc3nc(N)c(C(=O)c4c(F)cccc4F)s3)CC2)cc1 [Example R40] was tested, and the “CDK2 % Inhibition at 0.03 μM” value (CDK2/Cyclin A; at 0.03 μM) was 41%, the “HCT-116 % Inhibition at 0.1 μM” value (HCT-116 cell line; HCT-116 cells, at 0.1 μM) was 0% and the “HCT-116 5 Inhibition at 0.25 μM” value (HCT-116 cell line; HCT-116 cells) was 43. The “CDK4 % Inhibition at 0.03 μM” value ([1]; at 0.03 μM) was 66%.

Nc1nc(NC2CCN(S(=O)(=O)c3ccc(SCCc4ccccn4)nc3)CC2)sc1C(=O)c1c(F)cccc1F [Example L3, 1-(4-Amino-2-{1-[6-(2-pyridin-2-yl-ethylsulfanyl)-pyridine-3-sulfonyl]-piperidin-4-ylamino}-thiazol-5-yl)-1-(2,6-difluoro-phenyl)-methanone Hydrochloride.] was tested, and the Ki (CDK2/Cyclin A) was 0.68 nM, the IC50 (HCT-116 cell line; first HCT-116 column (c4)) was 350 nM and the IC50 (HCT-116 cell line; second HCT-116 column (c5)) was > 500 nM. For the same compound, the Ki [1] was 1.2 nM.

For CN(C)S(=O)(=O)N1CCC(Nc2nc(N)c(C(=O)c3c(F)cccc3F)s2)CC1 [Example P7], the “CDK2 % Inhibition at 0.03 μM” value (CDK2/Cyclin A; 0.03 μM compound, Table 3) was 49%, the “HCT-116 % Inhibition at 0.1 μM” value (HCT-116 cell line; 0.1 μM compound, HCT-116, Table 3) was 25% and the “HCT-116 % Inhibition at 0.25 μM” value (HCT-116 cell line; HCT-116, Table 3) was 23%. For the same compound, the “CDK4 % Inhibition at 0.03 μM” value ([1]; 0.03 μM compound, Table 3) was 47%.

Nc1nc(NC2CCN(C(=O)[C@@H]3C[C@H]3c3ccccc3)CC2)sc1C(=O)c1c(F)cccc1F (relative stereo) [Example R92] was tested, and the “CDK2 % Inhibition at 0.03 μM” value (CDK2/Cyclin A; at 0.03 μM) was −9%, the “HCT-116 % Inhibition at 0.1 μM” value (HCT-116 cell line; HCT-116 cells, at 0.1 μM) was 0% and the “HCT-116 5 Inhibition at 0.25 μM” value (HCT-116 cell line; HCT-116 cells) was 40. The “CDK4 % Inhibition at 0.03 μM” value ([1]; at 0.03 μM) was −2%.

With Nc1nc(NC2CCN(S(=O)(=O)c3ccc(N4CCN(C=O)CC4)nc3)CC2)sc1C(=O)c1c(F)cccc1F [Example G16, Trifluoroacetic Acid Salt] the Ki (CDK2/Cyclin A) was 0.51 nM, the IC50 (HCT-116 cell line; first HCT-116 column (c4)) was 290 nM and the IC50 (HCT-116 cell line; second HCT-116 column (c5)) was > 5000 nM. For the same compound, the Ki [1] was 0.63 nM.

With Nc1nc(NC2CCN(C(=O)C3(c4ccc(Cl)cc4)CC3)CC2)sc1C(=O)c1c(F)cccc1F [Example R91] the “CDK2 % Inhibition at 0.03 μM” value (CDK2/Cyclin A; at 0.03 μM) was −1%, the “HCT-116 % Inhibition at 0.1 μM” value (HCT-116 cell line; HCT-116 cells, at 0.1 μM) was 2% and the “HCT-116 5 Inhibition at 0.25 μM” value (HCT-116 cell line; HCT-116 cells) was 41. The “CDK4 % Inhibition at 0.03 μM” value ([1]; at 0.03 μM) was 14%.

In the case of Nc1nc(NC2CCN(C(=O)[C@H](Cc3ccccc3)NS(=O)(=O)c3ccc([N+](=O)[O-])cc3)CC2)sc1C(=O)c1c(F)cccc1F [Example R74], the “CDK2 % Inhibition at 0.03 μM” value (CDK2/Cyclin A; at 0.03 μM) is reported as 3%, the “HCT-116 % Inhibition at 0.1 μM” value (HCT-116 cell line; HCT-116 cells, at 0.1 μM) is reported as 0.12% and the “HCT-116 5 Inhibition at 0.25 μM” value (HCT-116 cell line; HCT-116 cells) is reported as 42. The “CDK4 % Inhibition at 0.03 μM” value ([1]; at 0.03 μM) was 20%.

For CCCCC(CC)C(=O)N1CCC(Nc2nc(N)c(C(=O)c3c(F)cccc3F)s2)CC1 (stereo not drawn) [Example R168], the “CDK2 % Inhibition at 0.03 μM” value (CDK2/Cyclin A; at 0.03 μM) was 6%, the “HCT-116 % Inhibition at 0.1 μM” value (HCT-116 cell line; HCT-116 cells, at 0.1 μM) was 0% and the “HCT-116 5 Inhibition at 0.25 μM” value (HCT-116 cell line; HCT-116 cells) was 42. The “CDK4 % Inhibition at 0.03 μM” value ([1]; at 0.03 μM) was −4%.

With Nc1nc(NC2CCN(C(=O)COc3ccccc3)CC2)sc1C(=O)c1c(F)cccc1F [Example Q41] the “CDK2 % Inhibition at 0.03 μM” value (CDK2/Cyclin A; 0.03 μM compound, Table 4) was 24%, the “HCT-116 % Inhibition at 0.1 μM” value (HCT-116 cell line; 0.1 μM compound, HCT-116, Table 4) was 3% and the “HCT-116 % Inhibition at 0.25 μM” value (HCT-116 cell line; HCT-116, Table 4) was 15%. For the same compound, the “CDK4 % Inhibition at 0.03 μM” value ([1]; 0.03 μM compound, Table 4) was 36%.

Nc1nc(NC2CCN(C(=O)c3c(F)cc(F)cc3F)CC2)sc1C(=O)c1c(F)cccc1F [Example R53] was tested, and the “CDK2 % Inhibition at 0.03 μM” value (CDK2/Cyclin A; at 0.03 μM) was 24%, the “HCT-116 % Inhibition at 0.1 μM” value (HCT-116 cell line; HCT-116 cells, at 0.1 μM) was 0% and the “HCT-116 5 Inhibition at 0.25 μM” value (HCT-116 cell line; HCT-116 cells) was 30. The “CDK4 % Inhibition at 0.03 μM” value ([1]; at 0.03 μM) was 32%.

Nc1nc(NC2CCN(S(=O)(=O)c3ccc(CCN4CCC[C@H]4CO)nc3)CC2)sc1C(=O)c1c(F)cccc1F [Example N9, [4-Amino-2-(1-{6-[2-(2S-hydroxymethyl-pyrrolidin-1-yl)-ethyl]-pyridine-3-sulfonyl}-piperidin-4-ylamino)-thiazol-5-yl]-(2,6-difluoro-phenyl)-methanone Hydrochloride Salt.] gave a Ki (CDK2/Cyclin A) of 0.8 nM, an IC50 (HCT-116 cell line; first HCT-116 column (c4)) of 70 nM and an IC50 (HCT-116 cell line; second HCT-116 column (c5)) of 700 nM. The Ki [1] was 0.26 nM.

For Nc1nc(NC2CCN(C(=O)Nc3cccc(Br)c3)CC2)sc1C(=O)c1c(F)cccc1F [Example O12], the “CDK2 % Inhibition At 0.03 μM” value (CDK2/Cyclin A; 0.03 μM compound) was 31%, the “HCT-116 % Inhibition at 0.25 μM” value (HCT-116 cell line; HCT-116, Table 2) was 25% and the “CDK4 % Inhibition at 0.03 μM” value ([1]; 0.03 μM compound, Table 2) was 3%.

In the case of N#Cc1ccc(S(=O)(=O)N2CCC(Nc3nc(N)c(C(=O)c4c(F)cccc4F)s3)CC2)cc1 [Example F18, 4-{4-[4-Amino-5-(2,6-difluoro-benzoyl)-thiazol-2-ylamino]-piperidine-1-sulfonyl}benzonitrile], the Ki (CDK2/Cyclin A) is reported as < 1 nM, the IC50 (HCT-116 cell line; first HCT-116 column (c4)) is reported as 300 nM and the IC50 (HCT-116 cell line; second HCT-116 column (c5)) is reported as 500 nM. It also gave a Ki [1] of 0.98 nM.

With CN1C(=O)c2ccc(NC(=O)N3CCC(Nc4nc(N)c(C(=O)c5c(F)cccc5F)s4)CC3)cc2C1=O [Example O88] the “CDK2 % Inhibition At 0.03 μM” value (CDK2/Cyclin A; 0.03 μM compound) was 31%, the “HCT-116 % Inhibition at 0.25 μM” value (HCT-116 cell line; HCT-116, Table 2) was 45% and the “CDK4 % Inhibition at 0.03 μM” value ([1]; 0.03 μM compound, Table 2) was 12%.
